Source: US9409952B2, “Peptide-compound cyclization method” (Chugai Seiyaku Kabushiki Kaisha, priority 2011, dated 2016)
Like-named read-outs stand apart in the source and are kept apart here. Starred links: 1 amine or outer side, 2 acyl side, 3 side chain; linkers in the order of their positions; H or OH if unused. Positions of bridges follow the written chain, without caps; N, C: chain ends. Non-standard residues stand in square brackets, D forms with d. Residues, ends and D or L forms follow the SMILES beside them. *: point of attachment. NMeF = CN[C@@H](Cc1ccccc1)C(=O)O; NMeGABA = CN(CCCC(=O)[*:2])[*:1]; NMeI = CC[C@H](C)[C@H](NC)C(=O)O; NMeβAla = CN(CCC(=O)[*:2])[*:1]; NMeL = CN[C@@H](CC(C)C)C(=O)O; NMeV = CN[C@H](C(=O)O)C(C)C; NMeA = CN[C@@H](C)C(=O)O; Piperidide = C1CCN(*)CC1; dNMeA = CN[C@H](C)C(=O)O; Sar = CNCC(=O)O; tBu = CC(C)(C)*

Tests used:
[1] = Metabolic stability in human hepatic microsome; type: in vitro ADME; conditions: microsomes
[2] = PAMPA (parallel artificial membrane permeability assay); type: in vitro ADME; conditions: PAMPA
Outline: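 Artificial membrane was 10% (w/v) egg lecithin plus 0.5% (w/v) cholesterol in dodecane on a PVDF filter. A 10 mM DMSO stock was added at 0.5% (v/v) to donor buffer (50 mM MOPSO, pH 6.5, 5.0% glycocholic acid). After 18 h at 37 °C, LC/MS or LC/UV gave donor and acceptor levels for Pe.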

[3] = pH 7.4, human hepatic microsome, NADPH(+), read-out: CL NADPH(+)
[4] = membrane permeation rate (Pe), 50 mM MOPSO buffer pH 6.5 with 5.0% glycocholic acid, 37° C., 18 hours, read-out: iPAMPA Pe

Structure (SMILES)	microsomal CLint at 1 uM [1, 3]	Papp at 18 hours, 50 µM [2, 4]	microsomal CLint at 1 uM ([1]; human, pH 7.4, CL NADPH(+))	Papp at 18 hours, 50 µM ([2]; pH 6.5)
CC(C)C[C@H]1C(=O)N[C@@H](COC(C)(C)C)C(=O)N[C@H](C(=O)N2CCCCC2)CC(=O)N(C)CCC(=O)N(C)[C@@H](C)C(=O)N(C)[C@@H](Cc2ccccc2)C(=O)N(C)[C@@H](CC(C)C)C(=O)N[C@@H]([C@@H](C)O)C(=O)N(C)[C@@H](C)C(=O)N1C [DP-269] ([NMeβAla][NMeA][NMeF][NMeL]T[NMeA][NMeL]S(tBu)D-Piperidide; lactam N-9)	58 µL/min/mg	11 ×10⁻⁶ cm/s		
CC(C)C[C@H]1C(=O)N(C)[C@@H](Cc2ccccc2)C(=O)N[C@H](C(=O)N2CCCCC2)CC(=O)N(C)[C@H](C)C(=O)N[C@@H]([C@@H](C)O)C(=O)N(C)[C@@H](C)C(=O)N(C)[C@@H](Cc2ccccc2)C(=O)N[C@@H](COC(C)(C)C)C(=O)NCC(=O)N1C [DP-270] ([dNMeA]T[NMeA][NMeF]S(tBu)G[NMeL][NMeF]D-Piperidide; lactam N-9)	79 µL/min/mg	22 ×10⁻⁶ cm/s		
CC(C)C[C@H]1C(=O)N(C)[C@@H](Cc2ccccc2)C(=O)NCC(=O)N[C@H](C(=O)N2CCCCC2)CC(=O)N(C)CC(=O)N[C@@H]([C@@H](C)O)C(=O)N(C)[C@@H](C)C(=O)N[C@@H](COC(C)(C)C)C(=O)N(C)[C@@H](Cc2ccccc2)C(=O)N1C [DP-271] ([Sar]T[NMeA]S(tBu)[NMeF][NMeL][NMeF]GD-Piperidide; lactam N-9)	38 µL/min/mg	10 ×10⁻⁶ cm/s		
CC[C@H](C)[C@H]1C(=O)N[C@H](C(=O)N2CCCCC2)CC(=O)N(C)CCCC(=O)N(C)[C@@H](Cc2ccccc2)C(=O)N[C@@H]([C@@H](C)O)C(=O)N(C)CC(=O)N[C@@H](COC(C)(C)C)C(=O)N(C)[C@@H](CC(C)C)C(=O)N(C)[C@@H](CC(C)C)C(=O)N1C [DP-272] ([NMeGABA][NMeF]T[Sar]S(tBu)[NMeL][NMeL][NMeI]D-Piperidide; lactam N-9)	82 µL/min/mg	49 ×10⁻⁶ cm/s		
CC[C@H](C)[C@@H]1NC(=O)[C@H](Cc2ccccc2)NC(=O)[C@H](C(C)C)N(C)C(=O)CCCN(C)C(=O)C[C@@H](C(=O)N2CCCCC2)NC(=O)[C@H](Cc2ccccc2)NC(=O)[C@H](CC(C)C)N(C)C(=O)CNC(=O)[C@H](CC(C)C)N(C)C(=O)[C@H](C)N(C)C(=O)[C@H]([C@@H](C)O)NC(=O)[C@H](CC(C)C)NC1=O [DP-273] ([NMeGABA][NMeV]FILT[NMeA][NMeL]G[NMeL]FD-Piperidide; lactam N-12)			102 µL/min/mg	21 ×10⁻⁶ cm/s
CC[C@H](C)[C@@H]1NC(=O)[C@H](Cc2ccccc2)N(C)C(=O)[C@H](Cc2ccccc2)NC(=O)[C@H]([C@@H](C)O)NC(=O)[C@H](C(C)C)N(C)C(=O)[C@H](CC(C)C)NC(=O)[C@H](CC(C)C)N(C)C(=O)CCCN(C)C(=O)C[C@@H](C(=O)N2CCCCC2)NC(=O)[C@H](C)NC(=O)[C@H](C)N(C)C1=O [DP-274] ([NMeGABA][NMeL]L[NMeV]TF[NMeF]I[NMeA]AD-Piperidide; lactam N-11)			183 µL/min/mg	25 ×10⁻⁶ cm/s
CC[C@H](C)[C@@H]1NC(=O)[C@H](CC(C)C)N(C)C(=O)[C@H](CC(C)C)N(C)C(=O)[C@H](C)NC(=O)CCCN(C)C(=O)C[C@@H](C(=O)N2CCCCC2)NC(=O)[C@H](CC(C)C)N(C)C(=O)[C@H](Cc2ccccc2)N(C)C(=O)CN(C)C(=O)[C@H]([C@@H](C)O)NC(=O)[C@H](Cc2ccccc2)N(C)C1=O [DP-275] ([NMeGABA]A[NMeL][NMeL]I[NMeF]T[Sar][NMeF][NMeL]D-Piperidide; lactam N-11)			440 µL/min/mg	36 ×10⁻⁶ cm/s
CC(C)C[C@H]1C(=O)N[C@@H](C)C(=O)N(C)[C@@H](Cc2ccccc2)C(=O)N2CCC[C@H]2C(=O)N(C)[C@@H](CC(C)C)C(=O)N(C)[C@@H](C(C)C)C(=O)N[C@H](C(=O)N2CCCCC2)CC(=O)N(C)CCCC(=O)N[C@@H]([C@@H](C)O)C(=O)N(C)CC(=O)N(C)[C@@H](Cc2ccccc2)C(=O)N1C [DP-276] ([NMeGABA]T[Sar][NMeF][NMeL]A[NMeF]P[NMeL][NMeV]D-Piperidide; lactam N-11)			68 µL/min/mg	19 ×10⁻⁶ cm/s
CC(C)C[C@H]1C(=O)N(C)[C@@H](C(C)C)C(=O)N[C@@H](Cc2ccccc2)C(=O)N[C@H](C(=O)N2CCCCC2)CC(=O)N(C)CCCC(=O)N[C@@H](COC(C)(C)C)C(=O)N(C)[C@@H](CC(C)C)C(=O)N(C)[C@@H](Cc2ccccc2)C(=O)N[C@@H]([C@@H](C)O)C(=O)NCC(=O)N1C [DP-277] ([NMeGABA]S(tBu)[NMeL][NMeF]TG[NMeL][NMeV]FD-Piperidide; lactam N-10)	389 µL/min/mg	38 ×10⁻⁶ cm/s		
CC[C@H](C)[C@@H]1NC(=O)[C@H](C)N(C)C(=O)C[C@@H](C(=O)N(C)[C@@H](Cc2ccccc2)C(=O)N[C@@H](C)C(=O)N2CCCCC2)NC(=O)[C@H](CC(C)C)N(C)C(=O)[C@H](CC(C)C)NC(=O)[C@@H]2CCCN2C(=O)CNC(=O)[C@H](CC(C)C)N(C)C(=O)[C@H](Cc2ccccc2)N(C)C(=O)[C@H](Cc2ccccc2)NC(=O)[C@H]([C@@H](C)O)NC1=O [DP-280] ([NMeA]ITF[NMeF][NMeL]GPL[NMeL]D[NMeF]A-Piperidide; lactam N-11)			28 µL/min/mg	21 ×10⁻⁶ cm/s
CC[C@H](C)[C@@H]1NC(=O)[C@H](C)N(C)C(=O)[C@H](CC(C)C)N(C)C(=O)CCN(C)C(=O)C[C@@H](C(=O)N(C)[C@@H](Cc2ccccc2)C(=O)N[C@@H](C)C(=O)N2CCCCC2)NC(=O)[C@H](CC(C)C)N(C)C(=O)[C@H](Cc2ccccc2)N(C)C(=O)[C@H](Cc2ccccc2)N(C)C(=O)[C@H](C)N(C)C(=O)[C@H]([C@@H](C)O)NC(=O)[C@H](CC(C)C)N(C)C1=O [DP-281] ([NMeβAla][NMeL][NMeA]I[NMeL]T[NMeA][NMeF][NMeF][NMeL]D[NMeF]A-Piperidide; lactam N-11)			28 µL/min/mg	17 ×10⁻⁶ cm/s
CC(C)C[C@@H]1NC(=O)[C@H](CC(C)C)N(C)C(=O)CNC(=O)[C@H](Cc2ccccc2)NC(=O)[C@H](C(C)C)N(C)C(=O)[C@H](Cc2ccccc2)NC(=O)[C@H](C)N(C)C(=O)CCN(C)C(=O)C[C@@H](C(=O)N(C)[C@@H](Cc2ccccc2)C(=O)N[C@@H](C)C(=O)N2CCCCC2)NC(=O)[C@H](C)N(C)C(=O)[C@H](CC(C)C)N(C)C1=O [DP-282] ([NMeβAla][NMeA]F[NMeV]FG[NMeL]L[NMeL][NMeA]D[NMeF]A-Piperidide; lactam N-11)			138 µL/min/mg	28 ×10⁻⁶ cm/s
CC[C@H](C)[C@H]1C(=O)N[C@@H](C)C(=O)N(C)[C@@H](CC(C)C)C(=O)N(C)[C@@H](Cc2ccccc2)C(=O)N[C@@H]([C@@H](C)O)C(=O)N(C)[C@@H](C)C(=O)N(C)[C@@H](CC(C)C)C(=O)N(C)[C@@H](Cc2ccccc2)C(=O)N[C@H](C(=O)N(C)[C@@H](Cc2ccccc2)C(=O)N[C@@H](C)C(=O)N2CCCCC2)CC(=O)N(C)CC(=O)N(C)[C@@H](CC(C)C)C(=O)N1C [DP-284] ([Sar][NMeL][NMeI]A[NMeL][NMeF]T[NMeA][NMeL][NMeF]D[NMeF]A-Piperidide; lactam N-11)			11 µL/min/mg	0.21 ×10⁻⁶ cm/s
CC(C)C[C@@H]1NC(=O)[C@H](C)N(C)C(=O)CNC(=O)[C@H](C(C)C)N(C)C(=O)[C@H](Cc2ccccc2)NC(=O)[C@H]([C@@H](C)O)NC(=O)[C@H](CC(C)C)N(C)C(=O)CN(C)C(=O)C[C@@H](C(=O)N(C)[C@@H](Cc2ccccc2)C(=O)N[C@@H](C)C(=O)N2CCCCC2)NC(=O)[C@H](C)N(C)C(=O)[C@H](CC(C)C)N(C)C1=O [DP-285] ([Sar][NMeL]TF[NMeV]G[NMeA]L[NMeL][NMeA]D[NMeF]A-Piperidide; lactam N-11)			69 µL/min/mg	16 ×10⁻⁶ cm/s
CC[C@H](C)[C@@H]1NC(=O)[C@H](C)N(C)C(=O)[C@H]([C@@H](C)O)NC(=O)[C@H](C(C)C)N(C)C(=O)[C@H](C)N(C)C(=O)[C@H](Cc2ccccc2)NC(=O)[C@H](C)NC(=O)C[C@@H](C(=O)N(C)[C@@H](Cc2ccccc2)C(=O)N[C@@H](C)C(=O)N2CCCCC2)NC(=O)[C@H](C)N(C)C(=O)[C@H](CC(C)C)N(C)C1=O [DP-288] (AF[NMeA][NMeV]T[NMeA]I[NMeL][NMeA]D[NMeF]A-Piperidide; lactam N-10)			80 µL/min/mg	18 ×10⁻⁶ cm/s
CC[C@H](C)[C@@H]1NC(=O)[C@H](CC(C)C)N(C)C(=O)CN(C)C(=O)[C@H]([C@@H](C)O)NC(=O)[C@H](CC(C)C)N(C)C(=O)[C@H](Cc2ccccc2)N(C)C(=O)[C@H](C)N(C)C(=O)[C@@H](C)NC(=O)C[C@@H](C(=O)N(C)[C@@H](Cc2ccccc2)C(=O)N[C@@H](C)C(=O)N2CCCCC2)NC(=O)[C@H](C(C)C)N(C)C1=O [DP-290] ([dA][NMeA][NMeF][NMeL]T[Sar][NMeL]I[NMeV]D[NMeF]A-Piperidide; lactam N-10)	23 µL/min/mg	19 ×10⁻⁶ cm/s		
CC(C)C[C@H]1C(=O)N(C)[C@@H](C(C)C)C(=O)N[C@@H](Cc2ccccc2)C(=O)N[C@H](C(=O)N(C)[C@@H](Cc2ccccc2)C(=O)N[C@@H](C)C(=O)N2CCCCC2)CC(=O)N[C@H](C)C(=O)N[C@@H](C(C)C)C(=O)N(C)[C@@H](CC(C)C)C(=O)N[C@@H]([C@@H](C)O)C(=O)N(C)[C@@H](Cc2ccccc2)C(=O)NCC(=O)N1C [DP-291] ([dA]V[NMeL]T[NMeF]G[NMeL][NMeV]FD[NMeF]A-Piperidide; lactam N-10)			97 µL/min/mg	14 ×10⁻⁶ cm/s
